Values quoted from earlier work, collected in patent publication US12478584B1, “Atomoxetine hydrochloride oral suspension and use thereof” (OWP Pharmaceuticals, Inc., priority 2025, dated 2025).

Settings: standard temperature and pressure

- water solubility: 27.8 mg/mL
Compound: CNCC[C@@H](Oc1ccccc1C)c1ccccc1.Cl [Atomoxetine, (3R)—N-methyl-3-(2-methylphenoxy)-3-phenylpropan-1-amine]
